One compound from paper PMC6425379, “Pharmacokinetic Study and Tissue Distribution of Lorlatinib in Mouse Serum and Tissue Samples by Liquid Chromatography-Mass Spectrometry” (Journal of Analytical Methods in Chemistry, 2019) can be followed below.

Data set [1] can be described thus: Pharmacokinetic study of lorlatinib in mouse serum after oral administration (LC-MS/MS, noncompartmental model). The format is in vivo, Kun Ming mice. Particulars: mice, 10 mg/kg. How it is done:
(§1) All the animal-related experiments were performed in accordance with guidelines of Institutional Experimental Animal Ethical Committee. Kun Ming mice (18–20 g) were obtained from the Beijing HFK Bioscience Co., Ltd. (Beijing, China). All mice were given free access to normal diet and water during the experiment with an exception that mice were fasted for 12 h prior to drug administration.
In order to make all serum samples fall within the range suitable for testing, 10 μL of serum sample was diluted to 100 μL with blank serum. The diluted serum sample was evenly mixed using vortex-mixing. A mixture sample was prepared by adding 200 μL of IS working solution (10 ng/mL) to 20 μL of diluted serum sample, and the mixture was vortex-mixed for 3 min. In order to extract lorlatinib, the supernatant was obtained by centrifugation (11,000 rpm, 15 min, 4°C). Then, 100 μL of supernatant was diluted to 200 μL with purified water, and the mixture was immediately vortex-mixed for 3 min.
(§2) The mice were orally administered with 10 mg/kg lorlatinib. Blood and tissue samples were collected from mice at 0.5, 1, 2, 4, 8, and 24 h after administration. The blood samples were transferred into glass containers and clotted at room temperature for 1 h. Once the clot was formed, blood sample was centrifuged at 4,000 rpm for 10 min, and supernatant was collected. The serum was transferred into another tube and stored at −80°C prior to further analysis. Tissue samples were rinsed by physiological saline, and then excess physiological saline was blotted up. The tissue samples were transferred into PP plastic bags and stored at −80°C until further detection.
(§3) The pharmacokinetic parameters of lorlatinib were estimated with noncompartment model by DAS (Data Analysis System) software (version 3.0, BioGuider Co., Shanghai, China). Moment analysis was used as a noncompartmental approach to obtain various pharmacokinetic parameters. Noncompartmental approach allowed the estimation of pharmacokinetic parameters without assuming any structural properties of the pharmacokinetic behavior of lorlatinib. The area under the curve (AUC) and the first moment curve (AUMC) were calculated by using the linear trapezoidal method, which is required by FDA. The half-life (t1/2) was estimated as MRT multiplied by 0.693. Cmax was defined as maximal concentration, and Tmax was defined as the time at which the Cmax was observed. The tissue distribution was described by quantifying lorlatinib in various tissues at 0.5, 1, 2, 4, 8, and 24 h after administration. All data were summarized to calculate means and standard deviations, and then the concentration-time curve was plotted.

Data set [2] can be described thus: Tissue distribution of lorlatinib in mice after oral administration (LC-MS/MS). The format is in vivo, Kun Ming mice. The conditions noted are these: 10 mg/kg; for concentration at 0.5 h: Kun Ming, mouse. How it is done: as §1
Tissue samples were weighed, and methanol was added to tissue samples at a ratio of methanol: tissue = 2 mL: 100 mg. Subsequently, tissue samples were homogenized using a high-throughput tissue homogenizer and vortex-mixed for 3 min. Supernatant was obtained by centrifuging at 11,000 rpm for 15 min. Then, 400 μL of 40 ng/mL IS solution was added to 100 μL supernatant. After vortex-mixing, supernatant was isolated by centrifugation.
as §2, §3

Like-named read-outs stand apart in the source and are kept apart here.

Compound `C[C@H]1Oc2cc(cnc2N)-c2c(nn(C)c2C#N)CN(C)C(=O)c2ccc(F)cc21` [Lorlatinib] returned a concentration at 24 h in data set [1] (Kun Ming, mouse, 24 h after administration) of 20.9 ± 1.07 ng/mL. Moreover, the Cmax in data set [1] (Kun Ming, mouse, n=8, mean) is 2710 ng/mL. Also, the Tmax in data set [1] (Kun Ming, mouse, n=8, mean) came out at 0.625 h. Also, the half-life in data set [1] (Kun Ming, mouse, n=8, mean, read-out: t1/2z (converted)) was 3.26 h. The maximal serum concentration in data set [1] (mean ± SD) was 2,705.683 ± 539.779 μg/L. In addition, the “AUC(0–∞)” value in data set [1] (n=8, mean) came out at 16208.177 ug/L ∗ h. Further, the “AUMC(0–∞)” value in data set [1] (n=8, mean) is recorded as 78840.738 h ∗ h ∗ ug/L. For the same compound, the “time at which the maximum concentration appeared in each tissue” value in data set [2] (each tissue) is 0.5 h. Besides, the concentration at 0.5 h in data set [2] (brain, read-out: concentration in brain) was found to be 1850 ng/g; in data set [2] (heart, read-out: concentration in heart), 3670 ng/g; in data set [2] (kidney, read-out: concentration in kidney), 5490 ng/g; in data set [2] (large intestine, read-out: concentration in large intestine) it was 2900 ng/g; in data set [2] (liver, read-out: concentration in liver), 31500 ng/g; in data set [2] (lung, read-out: concentration in lung), 3090 ng/g. Also, the concentration at 0.5 h in data set [2] (small intestine, read-out: concentration in small intestine) amounted to 5410 ng/g; in data set [2] (spleen, read-out: concentration in spleen), 2470 ng/g; in data set [2] (stomach, read-out: concentration in stomach), 21600 ng/g.

One may read the Cmax as the maximum level reached in the sampled fluid or tissue. In general, Tmax refers to the time at which the peak concentration occurs.
